# Assay results reported in ChEMBL document CHEMBL2016479, “Lead optimization of 4,4-biaryl piperidine amides as γ-secretase inhibitors” (Bioorg Med Chem Lett, 2012).
# Legend:
# [1] = (§1) AUC in Sprague-Dawley rat at 0.05 mg/kg, iv; type: ADME, organism-based, Plasma; design: dose 0.05 mg/kg, route intravenous; conditions: Sprague-Dawley, plasma
# [2] = Solubility of the compound; type: physicochemical
# [3] = Half life in Sprague-Dawley rat at 0.05 mg/kg, iv; type: ADME, organism-based; design: dose 0.05 mg/kg, route intravenous; conditions: in vivo
# [4] = Lipophilicity, log D of the compound; type: physicochemical; conditions: octanol/water
# [5] = Volume of distribution at steady state in Sprague-Dawley rat at 0.05 mg/kg, iv; type: ADME, organism-based; design: dose 0.05 mg/kg, route intravenous; conditions: in vivo, read-out: Vdss
# [6] = Apparent permeability of the compound; type: ADME; conditions: not told
# [7] = test system: Mus musculus; test: Anti-Alzheimer's disease activity in APP-YAC transgenic mouse model assessed as reduction in amyloid beta 42 production at 100 mg/kg, po; type: functional
# [8] = Plasma clearance in Sprague-Dawley rat at 0.05 mg/kg, iv; type: ADME, organism-based; design: dose 0.05 mg/kg, route intravenous
# [9] = molecular target: Gamma-secretase; test: Inhibition of gamma-secretase in human SH-SY5Y cells co-expressing APP C-terminal fragment SPA4CT assessed as inhibition of amyloid beta 40 production by electrochemiluminescent assay; type: cell-based
# [10] = Ratio of permeability from apical to basolateral side over basolateral to apical side in […] expressing human MDR1; type: ADME, cell-based
# [11] = Drug uptake in APP-YAC transgenic mouse plasma at 100 mg/kg, po after 6 hrs; type: ADME, organism-based; design: dose 100 mg/kg, route oral
# [12] = molecular target: Gamma-secretase; test: Inhibition of gamma-secretase in human SH-SY5Y cells co-expressing APP C-terminal fragment SPA4CT assessed as inhibition of amyloid beta 42 production by electrochemiluminescent assay; type: cell-based
# [13] = Drug uptake in APP-YAC transgenic mouse brain at 100 mg/kg, po after 6 hrs; type: ADME, organism-based; design: dose 100 mg/kg, route oral; conditions: read-out: Drug uptake
# [14] = test system: Rattus norvegicus; test: as §1; type: ADME, organism-based, Plasma; design: dose 0.05 mg/kg, route intravenous; conditions: in vivo
Compound,clearance [8] [mL/min/kg],IC50 [9] [nM],IC50 [12] [nM],other results
Cn1cc(C(=O)N2CCC(c3cc(F)ccc3F)(S(=O)(=O)c3ccc(Cl)cc3)CC2)c(C(F)(F)F)n1,> 84,160,120,AUC [1]: 0.23 µM·h; solubility [2]: 30.6 µM; half-life [3]: 2.05 h; logD [4]: 3.36; Vd [5]: 11.3 L; Papp [6]: 30.7 ×10⁻⁶ cm/s; inhibition in vivo at 100 mg/kg [7]: 17%; Ratio [10]: 1.8; concentration at 6 h [11]: 1780 nM; concentration at 6 h [13]: 520 nM
Cn1nc(C(F)(F)F)c(C(=O)N2CCC(c3cc(F)ccc3F)(S(=O)(=O)c3ccc(Cl)cc3)CC2)c1Cl,79,230,190,–
COc1ccc2c(C(=O)N3CCC(c4cc(F)ccc4F)(S(=O)(=O)c4ccc(Cl)cc4)CC3)c[nH]c2c1,> 84,270,80,–
COc1ccc2c(C(=O)N3CCC(c4cc(F)ccc4F)(S(=O)(=O)c4ccc(Cl)cc4)CC3)cn(C)c2c1,> 84,90,70,–
Cn1ccnc1C(=O)N1CCC(c2cc(F)ccc2F)(S(=O)(=O)c2ccc(Cl)cc2)CC1,> 84,200,160,–
O=C(c1ncccc1C(F)(F)F)N1CCC(c2cc(F)ccc2F)(S(=O)(=O)c2ccc(Cl)cc2)CC1,80.5,70,50,–
O=C(c1cnccc1C(F)(F)F)N1CCC(c2cc(F)ccc2F)(S(=O)(=O)c2ccc(Cl)cc2)CC1,> 84,130,110,–
O=C(c1cnc(Cl)cc1C(F)(F)F)N1CCC(c2cc(F)ccc2F)(S(=O)(=O)c2ccc(Cl)cc2)CC1,–,1090,970,–
O=C(c1cnc(Cl)nc1C(F)(F)F)N1CCC(c2cc(F)ccc2F)(S(=O)(=O)c2ccc(Cl)cc2)CC1,–,> 10000,> 10000,–
O=C(c1ccccc1C(F)(F)F)N1CCC(c2cc(F)ccc2F)(S(=O)(=O)c2ccc(Cl)cc2)CC1,31.9,260,210,–
O=C(CCC(F)(F)F)N1CCC(c2cc(F)ccc2F)(S(=O)(=O)c2ccc(Cl)cc2)CC1,–,400,420,–
O=C(CC(F)(F)F)N1CCC(c2cc(F)ccc2F)(S(=O)(=O)c2ccc(Cl)cc2)CC1,> 84,80,90,–
O=C(N1CCC(c2cc(F)ccc2F)(S(=O)(=O)c2ccc(Cl)cc2)CC1)C1(C(F)(F)F)CCCCC1,–,220,180,–
O=C(N1CCC(c2cc(F)ccc2F)(S(=O)(=O)c2ccc(Cl)cc2)CC1)C1(C(F)(F)F)CCCC1,> 84,140,110,–
O=C(N1CCC(c2cc(F)ccc2F)(S(=O)(=O)c2ccc(Cl)cc2)CC1)C1(C(F)(F)F)CCC1,46.2,70,60,–
O=C(N1CCC(c2cc(F)ccc2F)(S(=O)(=O)c2ccc(Cl)cc2)CC1)C1(C(F)(F)F)CC1,–,30,30,AUC [14]: 1.19 µM·h; solubility [2]: 26.8 µM; half-life [3]: 3.5 h; logD [4]: 3.76; Vd [5]: 3.1 L; Papp [6]: 37.3 ×10⁻⁶ cm/s; inhibition in vivo at 100 mg/kg [7]: 37%; Ratio [10]: 0.9; concentration at 6 h [11]: 650 nM; concentration at 6 h [13]: 1180 nM
COC(=O)C1(C(=O)N2CCC(c3cc(F)ccc3F)(S(=O)(=O)c3ccc(Cl)cc3)CC2)CC1,> 84,100,50,–
CC1(C(=O)N2CCC(c3cc(F)ccc3F)(S(=O)(=O)c3ccc(Cl)cc3)CC2)CC1,> 84,70,50,–
CC(C)(O)C(=O)N1CCC(c2cc(F)ccc2F)(S(=O)(=O)c2ccc(Cl)cc2)CC1,75.1,130,120,–
CC1(C(=O)N2CCC(c3cc(F)ccc3F)(S(=O)(=O)c3ccc(Cl)cc3)CC2)COC1,–,880,640,–
O=C(N1CC[C@](c2cc(F)ccc2F)(S(=O)(=O)c2ccc(Cl)cc2)[C@@H](O)C1)C1(C(F)(F)F)CC1 (racemic),–,250,190,–
O=C(N1CC[C@](c2cc(F)ccc2F)(S(=O)(=O)c2ccc(Cl)cc2)[C@H](O)C1)C1(C(F)(F)F)CC1 (racemic),–,40,40,AUC [1]: 3.51 µM·h; solubility [2]: 174 µM; half-life [3]: 1.6 h; logD [4]: 3.27; Vd [5]: 1.65 L; Papp [6]: 31.1 ×10⁻⁶ cm/s; inhibition in vivo at 100 mg/kg [7]: 76%; Ratio [10]: 1.2; concentration at 6 h [11]: 11100 nM; concentration at 6 h [13]: 7060 nM
"O=C(N1CC[C@](c2cc(F)ccc2F)(S(=O)(=O)c2ccc(Cl)cc2)[C@@H](O)C1)C1(C(F)(F)F)CC1 (single isomer, unassigned; 11b)",–,90,90,–
"O=C(N1CC[C@](c2cc(F)ccc2F)(S(=O)(=O)c2ccc(Cl)cc2)[C@@H](O)C1)C1(C(F)(F)F)CC1 (single isomer, unassigned; 11c)",–,1790,2390,–
"O=C(N1CC[C@](c2cc(F)ccc2F)(S(=O)(=O)c2ccc(Cl)cc2)[C@H](O)C1)C1(C(F)(F)F)CC1 (single isomer, unassigned; 12b)",–,110,80,–
"O=C(N1CC[C@](c2cc(F)ccc2F)(S(=O)(=O)c2ccc(Cl)cc2)[C@H](O)C1)C1(C(F)(F)F)CC1 (single isomer, unassigned; 12c)",5.7,10,10,–
